{"source": "patent US20170340584A1", "about": "(priority 2014, published 2017)", "key": {"[1]": {"experiment": "Scanning electron microscope (SEM) analysis, particle size", "type": "physicochemical", "excerpt": "For reference, an analysis instrument and analysis conditions are as follows. (1) Analysis instrument: HITACHI (S-2700), Japan (2) Electron gun: Tungsten filament type (3) Resolution: 4.0 nm (4) Accelerating voltage: 15.0 kV."}, "[2]": {"tested_on": "liver, white adipose tissue (WAT), brown adipose tissue (BAT) and kidney", "experiment": "Histological examination of high-fat diet mice", "type": "in vivo, mice (C57BL/6)", "details": "10 weeks of high-fat diet feeding", "protocol": "(§1) At 10 weeks of high-fat diet feeding, the mice were sacrificed by cervical dislocation to obtain serum. For histological examination, the liver, white adipose tissue (WAT), brown adipose tissue (BAT) and kidney were fixed with formalin (50-00-0, Junsei, Japan), and the remaining organs were stored at −70° C. The blood sampled from the heart was coagulated to obtain serum which was then stored at −70° C.\nFor histological examination, the major organs and adipose were fixed in 4% neutral buffered formalin and embedded in paraffin blocks, and the paraffin blocks were sectioned at 5 μm and stained with hymatoxylin (MHS-16, Sigma-Aldrich, USA) and eosin (HT110116, Sigma-Aldrich). The prepared tissue samples were mounted in glycerin gel mounting media (SP15-100, Fisher Scientific, USA), covered with cover glass, and observed with a microscope (IX71, OLYMPUS, USA). The tissue was imaged with the camera equipped in the microscope."}, "[3]": {"experiment": "Blood biochemistry (triglyceride, AST, ALT) in high-fat diet mice", "type": "in vivo, mice (C57BL/6)", "protocol": "(§2) Using 8-week-old male mice (C57BL/6) (purchased from CoreTech), anti-diabetic candidate materials were evaluated using a GTT (Glucose Tolerance Test) that is a typical method for diagnosis of diabetes.\n(§3) As feed, high-fat diet (60% of calories from fat; Research Diet Inc., New Brunswick, N.J.) and water were fed ad libitum for 10 weeks. Herein, the water fed contained the samples prepared in Examples 1-2 (3), 2-1, 2-4-1, 2-4-2 and 2-5. As a positive control, metformin (M-072, Sigma) (250 mg/kg) was used, and as a control, the samples prepared in Comparative Examples 1-1, 2-3-2, 2-5-1, 2-5-2 and 2-6 were used.\nIn blood biochemistry, insulin (AKRIN-011T, Shibayagi, Japan), glucose (AM202, Asan Pharmaceutical Co., Ltd., Korea), triglyceride (AM157, Asan Pharmaceutical Co., Ltd.), total cholesterol (AM202, Asan Pharmaceutical Co., Ltd.), AST and ALT (Asan Pharmaceutical Co., Ltd.) were analyzed using enzymatic assay kits.\nas §1\n(§4) Meanwhile, experimental analysis results were expressed as mean±S.E.M., and the significance between test groups was statistically processed using Student T-TEST, and then the significance was verified at *P<0.05."}, "[4]": {"experiment": "Body weight and body weight gain of high-fat diet mice", "type": "in vivo, mice (C57BL/6)", "details": "sample in drinking water, metformin 250 mg/kg", "protocol": "as §2\n(§5) Mice were housed at a temperature of 22±2° C. and a relative humidity of 55-60% with 12-hr light/12-hr dark cycles. Five animals were allotted to each group, and mice from the same mother were grouped into one group, because male mice tend to fight together.\nas §3\n(§6) For reference, each of the samples prepared in Examples 2-4-1, 2-4-2 and 2-5 was set to the amount to be taken by an adult (60 kg) for 3 days, and the amount was converted into a mouse dose (12-fold/kg, see the US NIH guidance), thereby preparing animal feed. Namely, the amount to be taken by an adult (60 kg) for 3 days is 180-day dose/kg, which corresponds to 15-day dose/kg for mice. Thus, the amount corresponds to 750-day dose/mouse (20 g), because the average weight of mice is about 20 g. Thus, one mouse was allowed to take 1/750 of the prepared sample each day.\n(§7) In addition, each of the samples prepared in Examples 1-2 (3) and 2-1 was set to the amount to be taken by an adult (60 kg) for 2 days, and the amount was converted into a mouse dose (12-fold/kg, see the US NIH guidance), thereby preparing animal feed. Namely, the amount to be taken by an adult (60 kg) for 2 days is 120-day dose/kg, which corresponds to 10-day dose/kg for mice. Thus, the amount corresponds to 500-day dose/mouse (20 g), because the average weight of mice is about 20 g. Thus, one mouse was allowed to take 1/500 of the prepared sample each day.\nThe diet intake and the body weight gain were measured weekly for 8 weeks. The body weight and the diet intake were measured immediately before first drug administration, and then measured at one-week intervals.\nas §4"}, "[5]": {"experiment": "Glucose tolerance test (GTT) in high-fat diet mice", "type": "in vivo, mice (C57BL/6)", "details": "for Glucose level (mg/dl), Mean: GTT, high-fat diet mice", "protocol": "as §2, §5, §3, §6, §7\nAt 8 weeks of high-fat diet feeding, a glucose tolerance test (GTT) was performed. For 8 hours for the test, mice were fasted. Then, blood was sampled from the tail vein, and initial blood glucose levels were measured with a blood glucose meter (AUTO-CHEK, Diatech Korea). Then, glucose was administered intraperitoneally to the mice at a concentration of 1 g/kg, and after 30 min, 60 min, 90 min and 120 min, blood was sampled from the mice, followed by measurement of blood glucose levels (each group consisting of five animals).\nas §4"}, "[6]": {"experiment": "Thermogravimetric analysis (TGA)", "type": "physicochemical", "details": "first-order differentiation of TGA; N2, 20° C./min", "protocol": "For reference, an analysis instrument and analysis conditions are as follows. (1) Analysis instrument: TGA 7 (Perkin-Elmer) (2) Atmosphere: N2 gas (3) Heating rate: 20° C./min (4) Range: 50 to 600° C."}}, "data": [{"smiles": "NCCS(=O)(=O)O", "note": "[DT15, modified taurine]", "values": [{"measurement": "Average particle size", "setting": "[1]", "value": 190.84, "unit": "μm"}, {"measurement": "Median particle size", "setting": "[1]", "value": 122.47, "unit": "μm"}, {"measurement": "Accumulation of adipose in brown adipose tissue", "setting": "[2]", "value": "decreased"}, {"measurement": "Development of fatty liver", "setting": "[2]", "value": "decreased"}, {"measurement": "Nephrotoxicity", "setting": "[2]; kidney tissue", "value": "did not appear"}, {"measurement": "ALT level", "setting": "[3]", "value": "lower than those of DT19"}, {"measurement": "AST level", "setting": "[3]", "value": "lower than those of DT19"}, {"measurement": "Triglyceride level", "setting": "[3]", "value": "significantly lower than that of DT19 (taurine)"}, {"measurement": "ALT level (IU/L), Mean", "setting": "[3]; blood", "value": 14.02, "unit": "IU/L"}, {"measurement": "AST level (IU/L), Mean", "setting": "[3]; blood", "value": 98.96, "unit": "IU/L"}, {"measurement": "Triglyceride level (mg/dl), Mean", "setting": "[3]; blood", "value": 53.62, "unit": "mg/dL"}, {"measurement": "Body weight gain, Mean", "setting": "[4]; 1 week", "value": 2.65, "unit": "g"}, {"measurement": "Body weight, Mean", "setting": "[4]; 1 week", "value": 20.30, "unit": "g"}, {"measurement": "Body weight gain, Mean", "setting": "[4]; 2 weeks", "value": 4.40, "unit": "g"}, {"measurement": "Body weight, Mean", "setting": "[4]; 2 weeks", "value": 22.05, "unit": "g"}, {"measurement": "Body weight gain, Mean", "setting": "[4]; 3 weeks", "value": 6.28, "unit": "g"}, {"measurement": "Body weight, Mean", "setting": "[4]; 3 weeks", "value": 23.93, "unit": "g"}, {"measurement": "Body weight gain, Mean", "setting": "[4]; 4 weeks", "value": 7.53, "unit": "g"}, {"measurement": "Body weight, Mean", "setting": "[4]; 4 weeks", "value": 25.18, "unit": "g"}, {"measurement": "Body weight gain, Mean", "setting": "[4]; 5 weeks", "value": 8.38, "unit": "g"}, {"measurement": "Body weight, Mean", "setting": "[4]; 5 weeks", "value": 26.03, "unit": "g"}, {"measurement": "Body weight gain, Mean", "setting": "[4]; 6 weeks", "value": 10.25, "unit": "g"}, {"measurement": "Body weight, Mean", "setting": "[4]; 6 weeks", "value": 27.90, "unit": "g"}, {"measurement": "Body weight gain, Mean", "setting": "[4]; 7 weeks", "value": 11.10, "unit": "g"}, {"measurement": "Body weight, Mean", "setting": "[4]; 7 weeks", "value": 28.75, "unit": "g"}, {"measurement": "Body weight, Mean", "setting": "[4]; 8 weeks", "value": 29.23, "unit": "g"}, {"measurement": "Body weight, Mean", "setting": "[4]; before administration", "value": 17.65, "unit": "g"}, {"measurement": "Glucose level (mg/dl), Mean", "setting": "[5]; 0 min", "value": 121.25, "unit": "mg/dL"}, {"measurement": "Glucose level (mg/dl), Mean", "setting": "[5]; 30 min", "value": 335.25, "unit": "mg/dL"}, {"measurement": "Glucose level (mg/dl), Mean", "setting": "[5]; 60 min", "value": 295.25, "unit": "mg/dL"}, {"measurement": "Glucose level (mg/dl), Mean", "setting": "[5]; 90 min", "value": 193.75, "unit": "mg/dL"}, {"measurement": "Glucose level (mg/dl), Mean", "setting": "[5]; 120 min", "value": 126.25, "unit": "mg/dL"}, {"measurement": "Fasting glucose level", "setting": "[5]; at 8 weeks of high-fat diet feeding, 8 hours fasted", "value": "lower than that of the mice administered with high-fat diet (HFD), and were similar to the blood glucose levels of normal mice"}, {"measurement": "Glucose control ability in GTT", "setting": "[5]; at 8 weeks of high-fat diet feeding, glucose 1 g/kg intraperitoneally, 30-120 min", "value": "significantly higher than that of the group administered with HFD alone"}, {"measurement": "Final decomposition temperature", "setting": "[6]", "value": 396, "unit": "°C"}, {"measurement": "First decomposition temperature", "setting": "[6]", "value": 359, "unit": "°C"}]}]}
